Reference: article PMC5563452 (Nature chemical biology, 2017)

Columns and labels:
TRPM2 [1] = biological target: T1, TRPM2 (Homo sapiens, UniProt O94759); test: whole-cell patch clamp; type: cell-based
TRPM2 [2] = biological target: T1, TRPM2; test: whole-cell patch clamp, HEK293 expressing hTRPM2; type: cell-based

T1 sequence (O94759 whole entry): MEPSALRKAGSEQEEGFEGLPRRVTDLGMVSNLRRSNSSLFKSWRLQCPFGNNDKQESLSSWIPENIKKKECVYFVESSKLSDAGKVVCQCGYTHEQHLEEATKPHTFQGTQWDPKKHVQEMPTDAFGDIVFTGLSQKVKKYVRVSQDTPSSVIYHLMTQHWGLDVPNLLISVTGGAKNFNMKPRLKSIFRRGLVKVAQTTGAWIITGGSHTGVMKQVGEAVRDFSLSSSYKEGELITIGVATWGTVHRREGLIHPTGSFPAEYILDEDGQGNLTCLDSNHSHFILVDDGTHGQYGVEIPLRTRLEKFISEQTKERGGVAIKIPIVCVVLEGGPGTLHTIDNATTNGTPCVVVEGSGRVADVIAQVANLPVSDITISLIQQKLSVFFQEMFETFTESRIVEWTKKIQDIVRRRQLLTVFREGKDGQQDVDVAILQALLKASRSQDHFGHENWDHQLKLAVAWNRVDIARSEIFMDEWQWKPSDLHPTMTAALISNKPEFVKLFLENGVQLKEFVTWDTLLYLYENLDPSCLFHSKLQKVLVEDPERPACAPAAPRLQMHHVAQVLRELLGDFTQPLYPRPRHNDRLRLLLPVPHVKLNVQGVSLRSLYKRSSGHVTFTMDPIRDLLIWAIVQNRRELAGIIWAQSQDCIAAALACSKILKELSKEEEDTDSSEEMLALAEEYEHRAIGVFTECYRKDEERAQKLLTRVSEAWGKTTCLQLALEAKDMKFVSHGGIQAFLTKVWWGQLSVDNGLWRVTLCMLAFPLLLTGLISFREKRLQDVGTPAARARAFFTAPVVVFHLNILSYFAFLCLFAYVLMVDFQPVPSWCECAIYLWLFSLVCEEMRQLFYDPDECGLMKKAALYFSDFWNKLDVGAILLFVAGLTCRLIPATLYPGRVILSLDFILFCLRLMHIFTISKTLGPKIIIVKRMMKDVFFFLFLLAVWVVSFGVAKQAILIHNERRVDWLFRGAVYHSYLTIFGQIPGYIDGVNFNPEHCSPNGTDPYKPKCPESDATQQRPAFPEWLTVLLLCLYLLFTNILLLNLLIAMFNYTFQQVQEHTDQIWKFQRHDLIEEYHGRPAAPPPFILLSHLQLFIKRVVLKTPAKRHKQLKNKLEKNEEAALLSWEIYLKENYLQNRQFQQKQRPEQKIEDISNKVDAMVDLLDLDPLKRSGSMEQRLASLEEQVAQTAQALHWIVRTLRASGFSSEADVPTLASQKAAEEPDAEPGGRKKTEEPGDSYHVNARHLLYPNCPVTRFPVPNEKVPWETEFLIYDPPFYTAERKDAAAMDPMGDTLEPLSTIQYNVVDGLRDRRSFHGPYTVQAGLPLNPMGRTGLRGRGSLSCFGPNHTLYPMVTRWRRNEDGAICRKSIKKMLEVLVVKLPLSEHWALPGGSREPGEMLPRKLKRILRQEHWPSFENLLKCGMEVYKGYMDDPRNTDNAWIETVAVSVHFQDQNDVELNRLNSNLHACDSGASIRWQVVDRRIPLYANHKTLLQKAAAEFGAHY

Row | EC50 (TRPM2 [1]) [µM] | EC50 (TRPM2 [2]) [µM] | SMILES
1 | 28 | – | Nc1ncnc2c1ncn2[C@@H]1O[C@H](COP(=O)(O)OP(=O)(O)OC[C@H]2OC(O)[C@H](O)[C@@H]2O)[C@@H](O)[C@H]1O (stereo partly drawn) [compound 1, ADPR]
2 | – | 46 | Nc1ncnc2c1ncn2[C@@H]1O[C@H](COP(=O)(O)OP(=O)(O)OC[C@H]2OC(O)[C@H](O)[C@@H]2O)C[C@H]1O (stereo partly drawn) [compound 17, 3′-deoxy-ADPR]
3 | – | 110 | Nc1ncnc2c1ncn2[C@@H]1O[C@H](COP(=O)(O)OP(=O)(O)OC[C@H]2OC(O)[C@H](O)[C@@H]2O)[C@@H](O)[C@H]1OP(=O)(O)O (stereo partly drawn) [compound 15, 2′-phospho-ADPR]
